# Results taken from patent US10670605B2, “Cysteine reactive probes and uses thereof” (The Scripps Research Institute, priority 2015, dated 2020).
# Columns and labels:
# Experiment in all cases: Competitive isoTOP-ABPP in situ (fragment-treated cells)
# Type in all cases: cell-based
# [1] = molecular target: cysteines in MDA-MB-231 and Ramos cells (Homo sapiens, UniProt O14980); conditions: 200 μM, insitu
# [2] = molecular target: cysteines in MDA-MB-231 and Ramos cells (Homo sapiens, UniProt P27707); conditions: 200 μM, insitu
# Chain of cysteines in MDA-MB-231 and Ramos cells (Homo sapiens, UniProt P27707) (P27707 whole entry): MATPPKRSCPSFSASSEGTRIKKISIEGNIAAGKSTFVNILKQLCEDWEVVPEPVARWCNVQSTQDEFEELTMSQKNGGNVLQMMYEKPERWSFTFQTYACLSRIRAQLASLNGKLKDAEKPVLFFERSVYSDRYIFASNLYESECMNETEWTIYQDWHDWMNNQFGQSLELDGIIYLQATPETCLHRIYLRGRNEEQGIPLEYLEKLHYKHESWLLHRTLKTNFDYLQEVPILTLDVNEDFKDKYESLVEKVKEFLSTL
# [3] = molecular target: T1, cysteines in MDA-MB-231 and Ramos cells (Homo sapiens, UniProt P51649); conditions: 200 μM, insitu
# T1 sequence (P51649 48-535): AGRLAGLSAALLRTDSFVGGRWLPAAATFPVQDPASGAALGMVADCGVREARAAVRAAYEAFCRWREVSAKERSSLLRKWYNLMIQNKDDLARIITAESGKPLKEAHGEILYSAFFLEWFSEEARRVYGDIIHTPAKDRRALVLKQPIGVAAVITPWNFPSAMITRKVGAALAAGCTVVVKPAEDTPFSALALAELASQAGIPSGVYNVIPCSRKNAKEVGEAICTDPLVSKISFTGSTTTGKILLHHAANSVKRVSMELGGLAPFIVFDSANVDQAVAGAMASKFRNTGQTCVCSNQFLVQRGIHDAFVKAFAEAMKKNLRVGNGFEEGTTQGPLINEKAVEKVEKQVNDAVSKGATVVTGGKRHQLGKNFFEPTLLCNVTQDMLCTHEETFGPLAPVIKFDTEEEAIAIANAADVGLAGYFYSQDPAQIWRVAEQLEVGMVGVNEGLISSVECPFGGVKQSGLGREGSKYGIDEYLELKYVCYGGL
# [4] = molecular target: cysteines in MDA-MB-231 and Ramos cells (Homo sapiens, UniProt P53634); conditions: 200 μM, insitu, 231
# Chain of cysteines in MDA-MB-231 and Ramos cells (Homo sapiens, UniProt P53634) (P53634 25-463): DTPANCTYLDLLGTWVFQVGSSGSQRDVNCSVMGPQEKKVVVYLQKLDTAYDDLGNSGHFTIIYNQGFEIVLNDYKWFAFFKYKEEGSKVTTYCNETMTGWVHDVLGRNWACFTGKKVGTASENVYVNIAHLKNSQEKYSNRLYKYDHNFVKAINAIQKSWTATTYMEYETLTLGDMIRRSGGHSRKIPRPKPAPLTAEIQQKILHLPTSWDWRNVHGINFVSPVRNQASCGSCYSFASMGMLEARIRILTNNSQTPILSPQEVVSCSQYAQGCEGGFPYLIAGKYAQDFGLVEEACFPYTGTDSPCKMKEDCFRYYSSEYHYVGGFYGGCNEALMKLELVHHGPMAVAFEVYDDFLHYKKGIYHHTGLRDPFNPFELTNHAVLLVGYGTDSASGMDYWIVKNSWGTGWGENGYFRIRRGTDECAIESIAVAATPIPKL
# [5] = molecular target: T2, cysteines in MDA-MB-231 and Ramos cells (Homo sapiens, UniProt Q5JPI3); conditions: 200 μM, insitu
# T2 sequence (Q5JPI3 1-329): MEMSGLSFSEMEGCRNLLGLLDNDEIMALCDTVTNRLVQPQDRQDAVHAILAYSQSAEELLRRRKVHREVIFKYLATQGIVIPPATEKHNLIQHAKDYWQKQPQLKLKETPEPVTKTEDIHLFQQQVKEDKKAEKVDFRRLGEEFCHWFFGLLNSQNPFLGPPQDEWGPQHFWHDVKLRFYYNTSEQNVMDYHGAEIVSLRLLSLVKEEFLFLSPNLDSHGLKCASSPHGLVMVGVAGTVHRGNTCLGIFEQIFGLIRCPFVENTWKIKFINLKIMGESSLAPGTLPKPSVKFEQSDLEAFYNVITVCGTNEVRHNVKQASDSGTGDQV
# [6] = molecular target: T3, cysteines in MDA-MB-231 and Ramos cells (Homo sapiens, UniProt Q9NX18); conditions: 200 μM, insitu
# T3 sequence (Q9NX18 30-166): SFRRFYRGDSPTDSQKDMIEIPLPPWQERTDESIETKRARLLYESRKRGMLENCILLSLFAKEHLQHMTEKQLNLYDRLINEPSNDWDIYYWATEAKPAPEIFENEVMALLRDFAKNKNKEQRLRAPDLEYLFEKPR
# [7] = molecular target: T4, cysteines in MDA-MB-231 and Ramos cells (Homo sapiens, UniProt Q9UPQ0); conditions: 200 μM, insitu, 231
# T4 sequence (Q9UPQ0 1-1083): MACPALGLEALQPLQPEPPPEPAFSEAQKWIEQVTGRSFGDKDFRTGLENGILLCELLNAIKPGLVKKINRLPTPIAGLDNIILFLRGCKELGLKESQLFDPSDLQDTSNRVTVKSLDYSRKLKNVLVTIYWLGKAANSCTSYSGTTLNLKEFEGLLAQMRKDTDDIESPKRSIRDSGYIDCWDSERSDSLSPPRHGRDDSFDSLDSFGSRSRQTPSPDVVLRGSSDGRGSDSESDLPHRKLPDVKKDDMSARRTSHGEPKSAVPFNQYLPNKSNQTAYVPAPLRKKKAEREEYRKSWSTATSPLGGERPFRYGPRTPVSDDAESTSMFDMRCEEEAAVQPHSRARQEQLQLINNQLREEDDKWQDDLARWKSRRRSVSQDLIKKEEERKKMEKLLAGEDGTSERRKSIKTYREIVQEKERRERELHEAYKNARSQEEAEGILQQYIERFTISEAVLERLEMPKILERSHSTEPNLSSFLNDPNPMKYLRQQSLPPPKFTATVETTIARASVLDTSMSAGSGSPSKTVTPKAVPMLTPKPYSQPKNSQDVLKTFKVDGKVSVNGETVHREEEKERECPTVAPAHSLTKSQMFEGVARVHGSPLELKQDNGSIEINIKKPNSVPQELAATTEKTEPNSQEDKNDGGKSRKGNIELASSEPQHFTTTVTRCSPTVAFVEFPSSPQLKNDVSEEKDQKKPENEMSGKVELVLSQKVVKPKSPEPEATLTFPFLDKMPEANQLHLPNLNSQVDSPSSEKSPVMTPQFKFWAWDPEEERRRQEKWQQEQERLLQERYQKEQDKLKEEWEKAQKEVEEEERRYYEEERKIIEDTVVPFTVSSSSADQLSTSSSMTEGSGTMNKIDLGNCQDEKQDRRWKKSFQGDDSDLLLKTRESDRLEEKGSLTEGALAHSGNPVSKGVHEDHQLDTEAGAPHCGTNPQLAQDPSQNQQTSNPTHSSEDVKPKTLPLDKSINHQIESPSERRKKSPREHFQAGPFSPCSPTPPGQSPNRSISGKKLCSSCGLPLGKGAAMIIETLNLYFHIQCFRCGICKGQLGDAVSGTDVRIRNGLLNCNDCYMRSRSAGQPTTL
# [8] = molecular target: cysteines in MDA-MB-231 and Ramos cells (Homo sapiens, UniProt Q8NBS9); conditions: 200 μM, insitu, 231
# Chain of cysteines in MDA-MB-231 and Ramos cells (Homo sapiens, UniProt Q8NBS9) (Q8NBS9 33-432): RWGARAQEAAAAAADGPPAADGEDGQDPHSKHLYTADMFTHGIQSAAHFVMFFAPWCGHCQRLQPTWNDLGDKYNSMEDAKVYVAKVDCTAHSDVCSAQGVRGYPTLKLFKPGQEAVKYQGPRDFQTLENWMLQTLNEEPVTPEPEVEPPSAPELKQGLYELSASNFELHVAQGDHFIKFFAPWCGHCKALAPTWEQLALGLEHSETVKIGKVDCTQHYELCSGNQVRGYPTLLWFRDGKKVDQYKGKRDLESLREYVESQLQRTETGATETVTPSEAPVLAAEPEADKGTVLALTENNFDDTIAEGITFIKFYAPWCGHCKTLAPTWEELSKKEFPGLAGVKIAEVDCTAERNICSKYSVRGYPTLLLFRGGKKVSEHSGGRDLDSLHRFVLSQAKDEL
# [9] = molecular target: cysteines in MDA-MB-231 and Ramos cells (Homo sapiens, UniProt Q96N67); conditions: 200 μM, insitu, 231
# Chain of cysteines in MDA-MB-231 and Ramos cells (Homo sapiens, UniProt Q96N67) (Q96N67 whole entry): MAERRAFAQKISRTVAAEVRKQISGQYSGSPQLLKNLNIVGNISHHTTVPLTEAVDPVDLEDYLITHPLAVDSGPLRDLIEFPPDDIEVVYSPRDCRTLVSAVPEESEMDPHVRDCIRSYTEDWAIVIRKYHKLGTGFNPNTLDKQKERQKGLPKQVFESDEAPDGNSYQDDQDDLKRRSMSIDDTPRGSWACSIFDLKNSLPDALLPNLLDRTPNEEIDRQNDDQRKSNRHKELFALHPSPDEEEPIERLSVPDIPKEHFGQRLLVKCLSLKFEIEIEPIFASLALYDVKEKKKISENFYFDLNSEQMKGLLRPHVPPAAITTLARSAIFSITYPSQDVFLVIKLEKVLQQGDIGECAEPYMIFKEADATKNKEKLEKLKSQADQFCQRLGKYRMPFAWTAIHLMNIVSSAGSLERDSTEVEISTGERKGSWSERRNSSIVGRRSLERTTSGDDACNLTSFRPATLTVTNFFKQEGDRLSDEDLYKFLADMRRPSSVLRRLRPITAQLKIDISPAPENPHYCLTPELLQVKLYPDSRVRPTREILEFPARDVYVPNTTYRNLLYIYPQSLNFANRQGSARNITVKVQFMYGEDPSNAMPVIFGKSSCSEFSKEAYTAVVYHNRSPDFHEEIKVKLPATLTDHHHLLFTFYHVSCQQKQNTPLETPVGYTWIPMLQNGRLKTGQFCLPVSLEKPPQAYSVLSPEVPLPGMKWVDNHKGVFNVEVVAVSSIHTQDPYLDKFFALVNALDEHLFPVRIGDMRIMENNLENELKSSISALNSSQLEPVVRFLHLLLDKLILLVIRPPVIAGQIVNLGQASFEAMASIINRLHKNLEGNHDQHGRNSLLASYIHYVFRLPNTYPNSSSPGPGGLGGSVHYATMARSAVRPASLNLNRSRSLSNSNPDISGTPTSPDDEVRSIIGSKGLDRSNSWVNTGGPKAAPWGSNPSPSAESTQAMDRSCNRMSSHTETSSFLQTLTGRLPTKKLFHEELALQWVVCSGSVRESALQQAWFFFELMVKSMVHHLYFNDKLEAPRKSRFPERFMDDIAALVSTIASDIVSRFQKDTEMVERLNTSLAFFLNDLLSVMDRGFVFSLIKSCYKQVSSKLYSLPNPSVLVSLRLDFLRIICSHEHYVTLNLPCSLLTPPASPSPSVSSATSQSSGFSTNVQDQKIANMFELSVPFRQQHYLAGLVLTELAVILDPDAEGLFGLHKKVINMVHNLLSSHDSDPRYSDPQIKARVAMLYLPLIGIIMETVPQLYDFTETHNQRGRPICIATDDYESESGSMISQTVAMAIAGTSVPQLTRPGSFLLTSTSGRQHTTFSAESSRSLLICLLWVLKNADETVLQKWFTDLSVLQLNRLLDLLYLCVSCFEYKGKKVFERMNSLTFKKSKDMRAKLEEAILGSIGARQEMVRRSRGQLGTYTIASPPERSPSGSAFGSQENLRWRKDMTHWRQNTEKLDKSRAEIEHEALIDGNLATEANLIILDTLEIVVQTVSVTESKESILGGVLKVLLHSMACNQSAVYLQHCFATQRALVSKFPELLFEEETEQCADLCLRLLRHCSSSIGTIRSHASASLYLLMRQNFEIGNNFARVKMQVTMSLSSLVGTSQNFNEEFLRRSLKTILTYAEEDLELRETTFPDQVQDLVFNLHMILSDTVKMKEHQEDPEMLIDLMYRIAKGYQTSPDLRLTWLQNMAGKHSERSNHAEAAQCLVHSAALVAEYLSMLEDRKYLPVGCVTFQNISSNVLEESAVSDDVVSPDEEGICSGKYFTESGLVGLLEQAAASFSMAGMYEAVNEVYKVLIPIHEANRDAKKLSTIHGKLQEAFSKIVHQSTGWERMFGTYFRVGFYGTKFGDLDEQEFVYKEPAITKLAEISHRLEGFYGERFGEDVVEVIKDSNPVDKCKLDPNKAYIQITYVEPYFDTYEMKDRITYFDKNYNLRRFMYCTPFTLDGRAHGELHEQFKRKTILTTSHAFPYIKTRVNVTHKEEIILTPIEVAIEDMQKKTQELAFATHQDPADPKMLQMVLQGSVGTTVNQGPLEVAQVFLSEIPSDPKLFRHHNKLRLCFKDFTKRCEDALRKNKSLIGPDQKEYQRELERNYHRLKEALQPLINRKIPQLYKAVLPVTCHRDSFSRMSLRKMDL
# [10] = molecular target: cysteines in MDA-MB-231 and Ramos cells (Homo sapiens, UniProt P48643); conditions: 200 μM, insitu
# Chain of cysteines in MDA-MB-231 and Ramos cells (Homo sapiens, UniProt P48643) (P48643 whole entry): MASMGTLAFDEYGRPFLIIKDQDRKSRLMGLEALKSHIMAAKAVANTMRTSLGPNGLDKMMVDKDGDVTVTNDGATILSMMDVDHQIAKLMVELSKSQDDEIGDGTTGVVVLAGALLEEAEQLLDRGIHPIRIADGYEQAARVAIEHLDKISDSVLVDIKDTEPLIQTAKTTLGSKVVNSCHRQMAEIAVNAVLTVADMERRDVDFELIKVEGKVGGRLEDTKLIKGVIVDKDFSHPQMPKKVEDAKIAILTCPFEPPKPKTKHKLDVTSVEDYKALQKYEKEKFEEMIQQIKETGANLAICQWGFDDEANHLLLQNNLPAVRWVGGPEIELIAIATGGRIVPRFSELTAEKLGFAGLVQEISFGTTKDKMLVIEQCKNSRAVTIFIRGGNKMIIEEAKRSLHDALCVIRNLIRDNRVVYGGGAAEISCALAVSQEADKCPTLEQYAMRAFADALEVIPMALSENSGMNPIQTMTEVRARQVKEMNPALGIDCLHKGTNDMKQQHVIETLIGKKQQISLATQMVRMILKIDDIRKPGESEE
# Chain of cysteines in MDA-MB-231 and Ramos cells (Homo sapiens, UniProt O14980) (O14980 whole entry): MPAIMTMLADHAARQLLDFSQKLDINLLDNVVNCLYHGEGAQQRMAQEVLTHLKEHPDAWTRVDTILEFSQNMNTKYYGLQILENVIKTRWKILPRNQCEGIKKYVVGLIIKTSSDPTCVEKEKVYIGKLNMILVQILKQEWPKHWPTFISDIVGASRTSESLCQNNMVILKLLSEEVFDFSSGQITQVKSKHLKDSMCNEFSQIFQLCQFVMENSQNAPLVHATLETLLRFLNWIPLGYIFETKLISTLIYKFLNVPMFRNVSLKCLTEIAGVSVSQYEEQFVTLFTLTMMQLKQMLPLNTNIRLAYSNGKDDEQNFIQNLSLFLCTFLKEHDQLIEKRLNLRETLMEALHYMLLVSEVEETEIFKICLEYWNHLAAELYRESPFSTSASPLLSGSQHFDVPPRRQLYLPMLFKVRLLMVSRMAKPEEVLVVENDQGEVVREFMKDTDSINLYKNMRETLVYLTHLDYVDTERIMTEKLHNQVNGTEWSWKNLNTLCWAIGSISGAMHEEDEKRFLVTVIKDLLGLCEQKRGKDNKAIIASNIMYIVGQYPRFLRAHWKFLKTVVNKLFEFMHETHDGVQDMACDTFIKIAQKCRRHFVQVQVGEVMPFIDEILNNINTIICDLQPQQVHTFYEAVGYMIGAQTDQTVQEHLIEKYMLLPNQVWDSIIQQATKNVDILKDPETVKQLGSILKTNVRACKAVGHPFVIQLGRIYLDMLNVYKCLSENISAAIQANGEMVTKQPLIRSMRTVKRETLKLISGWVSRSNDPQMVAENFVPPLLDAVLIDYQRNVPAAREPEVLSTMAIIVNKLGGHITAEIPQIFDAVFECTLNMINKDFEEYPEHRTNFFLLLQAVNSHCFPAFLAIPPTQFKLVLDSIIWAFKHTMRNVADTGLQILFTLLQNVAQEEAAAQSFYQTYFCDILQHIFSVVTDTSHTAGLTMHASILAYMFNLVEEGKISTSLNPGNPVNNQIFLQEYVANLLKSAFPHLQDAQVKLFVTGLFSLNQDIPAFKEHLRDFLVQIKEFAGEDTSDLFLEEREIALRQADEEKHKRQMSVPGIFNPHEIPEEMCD
isoTOP-ABPP ratio O14980_C528 [1]; 231,isoTOP-ABPP ratio P27707_C9 [2]; 231,isoTOP-ABPP ratio P51649_C340 [3]; 231,isoTOP-ABPP ratio Q9NX18_C83 [6]; 231,isoTOP-ABPP ratio Q9UPQ0_C140 [7],isoTOP-ABPP ratio Q8NBS9_C350 [8],isoTOP-ABPP ratio Q96N67_C2125 [9],isoTOP-ABPP ratio P48643_C253 [10]; 231,Structure (SMILES),also measured
0.8,1.3,1.2,1.3,0.8,–,–,–,O=C(CCl)NC12CC3CC(CC(C3)C1)C2 [compound 21],"isoTOP-ABPP ratio, cysteine P53634_C258 [4]: 2.8; isoTOP-ABPP ratio, cysteine Q5JPI3_C308 [5]; 231: 0.9"
–,–,0.9,1.5,0.7,1.1,0.9,–,CC(C)CCOCCNC(=O)CCl [compound 27],isoTOP-ABPP ratio Q5JPI3_C308 [5]; 231: 0.7
–,–,–,–,–,1.1,–,0.8,COc1ccccc1OCCNC(=O)CCl [compound 28],–
–,–,–,–,–,–,–,–,O=C(CCl)N1CCN(CC(=O)N2CCOCC2)CC1 [compound 29],isoTOP-ABPP ratio O14980_C528 ([1]; ramos): 1.1; isoTOP-ABPP ratio P27707_C9 ([2]; ramos): 1.2; isoTOP-ABPP ratio P51649_C340 ([3]; ramos): 1.0; isoTOP-ABPP ratio Q5JPI3_C308 ([5]; ramos): 1.3; isoTOP-ABPP ratio Q9NX18_C83 ([6]; ramos): 1.9
–,–,–,–,–,0.8,0.8,0.5,C=CC(=O)N(Cc1cccnc1)c1cc(C(F)(F)F)cc(C(F)(F)F)c1 [compound 31],isoTOP-ABPP ratio P27707_C9 ([2]; ramos): 1.2; isoTOP-ABPP ratio P48643_C253 ([10]; ramos): 1.0; isoTOP-ABPP ratio P51649_C340 ([3]; ramos): 1.0
2.1,1.8,–,–,2.5,–,1.5,1.1,C=CC(=O)Nc1cc(F)c(N2CCN(C(=O)OC(C)(C)C)CC2)c(F)c1 [compound 38],–
0.9,0.4,–,–,0.5,0.9,0.7,0.8,Cc1ccc(C=C(C#N)C(=O)NCCN2CCOCC2)cc1 [compound 41],isoTOP-ABPP ratio Q5JPI3_C308 [5]; 231: 0.7
–,–,2.4,3.7,20.0,2.1,–,1.2,CC1CCc2ccccc2N1C(=O)CCl (stereo not shown) [compound 45],–
1.1,–,–,1.0,–,–,–,0.8,O=C(CCl)Nc1cccc2ncccc12 [compound 51],–
